Measured values from ChEMBL document CHEMBL3044826, “Design, synthesis and biological evaluation of some novel substituted 2-mercapto-3-phenethylquinazolines as antitumor agents” (2013).
The source made the active and inactive calls. The calls are words filed in the database; no cut-off is given here.

How the values were obtained:
HCT-116 = experiment: Cytotoxicity against Homo sapiens (human) HCT116 cells assessed as growth inhibition at 10 uM after 48 hr by coulter counter analysis; type: functional; conditions: HCT-116, 48 h, read-out: GI
Malme-3M = experiment: Cytotoxicity against Homo sapiens (human) MALME-3M cells assessed as growth inhibition at 10 uM after 48 hr by coulter counter analysis; type: functional; conditions: read-out: GI
NCI-H226 = experiment: Cytotoxicity against Homo sapiens (human) NCI-H226 cells assessed as growth inhibition at 10 uM after 48 hr by coulter counter analysis; type: functional; conditions: NCI-H226, 48 h, read-out: GI
HT-29 = experiment: Cytotoxicity against Homo sapiens (human) HT-29 cells assessed as growth inhibition at 10 uM after 48 hr by coulter counter analysis; type: functional; conditions: HT-29, 48 h, read-out: GI
Hs-578T = experiment: Cytotoxicity against Homo sapiens (human) Hs578T cells assessed as growth inhibition at 10 uM after 48 hr by coulter counter analysis; type: functional; conditions: read-out: GI
OVCAR-3 = experiment: Cytotoxicity against Homo sapiens (human) OVCAR3 cells assessed as growth inhibition at 10 uM after 48 hr by coulter counter analysis; type: functional; conditions: OVCAR-3, 48 h, read-out: GI
OVCAR-4 = experiment: Cytotoxicity against Homo sapiens (human) OVCAR4 cells assessed as growth inhibition at 10 uM after 48 hr by coulter counter analysis; type: functional; conditions: OVCAR-4, 48 h, read-out: GI
CCRF-CEM = experiment: Cytotoxicity against Homo sapiens (human) CCRF-CEM cells assessed as growth inhibition at 10 uM after 48 hr by coulter counter analysis; type: functional; conditions: read-out: GI
MOLT-4 = experiment: Cytotoxicity against Homo sapiens (human) MOLT4 cells assessed as growth inhibition at 10 uM after 48 hr by coulter counter analysis; type: functional; conditions: MOLT-4, 48 h, read-out: GI
UACC-257 = experiment: Cytotoxicity against Homo sapiens (human) UACC257 cells assessed as growth inhibition at 10 uM after 48 hr by coulter counter analysis; type: functional; conditions: UACC-257, 48 h, read-out: GI
786-0 = experiment: Cytotoxicity against Homo sapiens (human) 786-0 cells assessed as growth inhibition at 10 uM after 48 hr by coulter counter analysis; type: functional; conditions: 786-0, 48 h, read-out: GI
IGROV-1 = experiment: Cytotoxicity against Homo sapiens (human) IGROV1 cells assessed as growth inhibition at 10 uM after 48 hr by coulter counter analysis; type: functional; conditions: IGROV-1, 48 h, read-out: GI
MCF7 = experiment: Cytotoxicity against Homo sapiens (human) MCF7 cells assessed as growth inhibition at 10 uM after 48 hr by coulter counter analysis; type: functional; conditions: MCF7, 48 h, read-out: GI
NCI-H522 [1] = experiment: Cytotoxicity against Homo sapiens (human) NCI-H522 cells at 10 uM after 48 hr by coulter counter analysis; type: functional, cell-based
SK-OV-3 = experiment: Cytotoxicity against Homo sapiens (human) SKOV3 cells assessed as growth inhibition at 10 uM after 48 hr by coulter counter analysis; type: functional; conditions: SK-OV-3, 48 h, read-out: GI
HL-60(TB) = experiment: Cytotoxicity against Homo sapiens (human) HL-60(TB) cells assessed as growth inhibition at 10 uM after 48 hr by coulter counter analysis; type: functional; conditions: HL-60, 48 h, read-out: GI
NCI-H460 = experiment: Cytotoxicity against Homo sapiens (human) NCI-H460 cells assessed as growth inhibition at 10 uM after 48 hr by coulter counter analysis; type: functional; conditions: NCI-H460, 48 h, read-out: GI
NCI-H23 = experiment: Cytotoxicity against Homo sapiens (human) NCI-H23 cells assessed as growth inhibition at 10 uM after 48 hr by coulter counter analysis; type: functional; conditions: NCI-H23, 48 h, read-out: GI
SK-MEL-28 = experiment: Cytotoxicity against Homo sapiens (human) SK-MEL-28 cells assessed as growth inhibition at 10 uM after 48 hr by coulter counter analysis; type: functional; conditions: SK-MEL-28, 48 h, read-out: GI
HCT-15 = experiment: Cytotoxicity against Homo sapiens (human) HCT15 cells assessed as growth inhibition at 10 uM after 48 hr by coulter counter analysis; type: functional; conditions: HCT-15, 48 h, read-out: GI
T47D = experiment: Cytotoxicity against Homo sapiens (human) T47D cells assessed as growth inhibition at 10 uM after 48 hr by coulter counter analysis; type: functional; conditions: read-out: GI
NCI-H522 [2] = experiment: Cytotoxicity against Homo sapiens (human) NCI-H522 cells assessed as growth inhibition at 10 uM after 48 hr by coulter counter analysis; type: functional; conditions: NCI-H522, 48 h, read-out: GI

## CCn1c(S)nnc1CSc1nc2ccccc2c(=O)n1CCc1ccccc1
HCT-116
  inhibition of growth at 10 µM: 35%
Malme-3M
  inhibition of growth at 10 µM: < 10%
NCI-H226
  inhibition of growth at 10 µM: 35%
HT-29
  inhibition of growth at 10 µM: < 10%
Hs-578T
  inhibition of growth at 10 µM: < 10%
OVCAR-3
  inhibition of growth at 10 µM: < 10%
OVCAR-4
  inhibition of growth at 10 µM: 15%
CCRF-CEM
  inhibition of growth at 10 µM: 27%
MOLT-4
  inhibition of growth at 10 µM: 29%
UACC-257
  inhibition of growth at 10 µM: 12%
786-0
  inhibition of growth at 10 µM: 19%
IGROV-1
  inhibition of growth at 10 µM: < 10%
MCF7
  inhibition of growth at 10 µM: 16%
NCI-H522 [1]
  Activity: Active
SK-OV-3
  inhibition of growth at 10 µM: < 10%
HL-60(TB)
  inhibition of growth at 10 µM: 30%
NCI-H460
  inhibition of growth at 10 µM: 31%
NCI-H23
  inhibition of growth at 10 µM: < 10%
SK-MEL-28
  inhibition of growth at 10 µM: < 10%
HCT-15
  inhibition of growth at 10 µM: 12%
T47D
  inhibition of growth at 10 µM: 27%

## O=c1c2ccccc2[nH]c(=S)n1CCc1ccccc1
HCT-116
  inhibition of growth at 10 µM: 18%
Malme-3M
  inhibition of growth at 10 µM: < 10%
NCI-H226
  inhibition of growth at 10 µM: < 10%
HT-29
  inhibition of growth at 10 µM: < 10%
Hs-578T
  inhibition of growth at 10 µM: < 10%
OVCAR-3
  inhibition of growth at 10 µM: < 10%
OVCAR-4
  inhibition of growth at 10 µM: < 10%
CCRF-CEM
  inhibition of growth at 10 µM: 16%
MOLT-4
  inhibition of growth at 10 µM: 23%
UACC-257
  inhibition of growth at 10 µM: < 10%
786-0
  inhibition of growth at 10 µM: < 10%
NCI-H522 [2]
  inhibition of growth at 10 µM: < 10%
IGROV-1
  inhibition of growth at 10 µM: < 10%
MCF7
  inhibition of growth at 10 µM: 31%
SK-OV-3
  inhibition of growth at 10 µM: < 10%
HL-60(TB)
  inhibition of growth at 10 µM: 11%
NCI-H460
  inhibition of growth at 10 µM: < 10%
NCI-H23
  inhibition of growth at 10 µM: < 10%
SK-MEL-28
  inhibition of growth at 10 µM: < 10%
HCT-15
  inhibition of growth at 10 µM: < 10%
T47D
  inhibition of growth at 10 µM: < 10%
